Test results published in patent US7407670B2, “Solid dispersions comprising two different polymer matrixes” (Janssen Pharmaceutica, N.V., priority 2002, dated 2008).

Experiment: Solubility of itraconazole in polymer solutions at 298K
Type: physicochemical
Details: eudragit E100 solution versus PVPVA64 solution
Description: FIG. 10: Solubility of itraconazole in different concentration of polymer solutions at 298K in eudragit E100 (open bars) and PVPVA64 (closed bars).

CCC(C)n1ncn(-c2ccc(N3CCN(c4ccc(OCC5COC(Cn6cncn6)(c6ccc(Cl)cc6Cl)O5)cc4)CC3)cc2)c1=O (stereo not shown) [itraconazole, Itraconazole]
solubility in polymer solution (comparison in words): much higher in eudragit E100 solution
